{
  "source": "patent US10206904B2",
  "about": "“Licofelone derivatives and methods of use” (The Board of Regents of the University of Oklahoma, priority 2015, dated 2019)",
  "conditions": "for Major Organ Toxicity / Liver enzymes ALKP / Liver enzymes ALT / Liver enzymes AST / Liver enzymes LDH / Ulceration (Grade) Colon / Ulceration (Grade) Small Intestine / Ulceration (Grade) Stomach: 6 weeks, male C57 mice; for Liver enzymes ALKP / Liver enzymes ALT / Liver enzymes AST / Liver enzymes LDH: Mean ± SEM",
  "note": "“Also recorded” adds a separate entry of the source. Like-named read-outs stand apart in the source and are kept apart here.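 Also: gross examination of all organs at necropsy, with liver enzyme profile and GI ulceration assessed in collected tissues and blood.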",
  "method": "Body weights and symptoms of toxicity were recorded twice weekly for 6 weeks. […] All organs were examined grossly for any abnormalities upon necropsy. Livers, kidney, stomach, intestinal tract, and blood were obtained from the animals and analyzed for Liver enzyme profile, GI ulceration, and levels of test agents.\nAll animals found dead will be necropsied to confirm that the most likely cause of death was due to intestinal ulcerations.",
  "data": [
    {"smiles": "CCCCCCC(Sc1nc(Cl)cc(Nc2cccc(C)c2C)n1)C(=O)O", "note": "(stereo not shown) [YS-121, reference compound]", "values": [
      {"measurement": "Major Organ Toxicity", "setting": "25 ppm in diet", "value": "None"},
      {"measurement": "Liver enzymes ALKP", "setting": "25 ppm in diet", "value": "183 ± 24", "unit": "units/L"},
      {"measurement": "Liver enzymes ALT", "setting": "25 ppm in diet", "value": "81 ± 11", "unit": "units/L"},
      {"measurement": "Liver enzymes AST", "setting": "25 ppm in diet", "value": "77 ± 8.6", "unit": "units/L"},
      {"measurement": "Liver enzymes LDH", "setting": "25 ppm in diet", "value": "388 ± 29", "unit": "units/L"},
      {"measurement": "Major Organ Toxicity", "setting": "50 ppm in diet", "value": "None"},
      {"measurement": "Liver enzymes ALKP", "setting": "50 ppm in diet", "value": "198 ± 33", "unit": "units/L"},
      {"measurement": "Liver enzymes ALT", "setting": "50 ppm in diet", "value": "96 ± 14", "unit": "units/L"},
      {"measurement": "Liver enzymes AST", "setting": "50 ppm in diet", "value": "90 ± 7.8", "unit": "units/L"},
      {"measurement": "Liver enzymes LDH", "setting": "50 ppm in diet", "value": "451 ± 38", "unit": "units/L"},
      {"measurement": "toxicity", "setting": "75 ppm and above dose levels in diet, mice", "value": "significant toxicity"},
      {"measurement": "Major Organ Toxicity", "setting": "75 ppm in diet", "value": "Liver"},
      {"measurement": "Liver enzymes ALKP", "setting": "75 ppm in diet", "value": "358 ± 47", "unit": "units/L"},
      {"measurement": "Liver enzymes ALT", "setting": "75 ppm in diet", "value": "147 ± 17", "unit": "units/L"},
      {"measurement": "Liver enzymes AST", "setting": "75 ppm in diet", "value": "118 ± 18", "unit": "units/L"},
      {"measurement": "Liver enzymes LDH", "setting": "75 ppm in diet", "value": "540 ± 51", "unit": "units/L"},
      {"measurement": "Major Organ Toxicity", "setting": "100 ppm in diet", "value": "Liver*"},
      {"measurement": "Ulceration (Grade) Colon", "setting": "100 ppm in diet", "value": "Grade: 0, 1"},
      {"measurement": "Ulceration (Grade) Small Intestine", "setting": "100 ppm in diet", "value": "Grade: 1"},
      {"measurement": "Ulceration (Grade) Stomach", "setting": "100 ppm in diet", "value": "Grade: 2-3"},
      {"measurement": "Liver enzymes ALKP", "setting": "100 ppm in diet", "value": "477 ± 51", "unit": "units/L"},
      {"measurement": "Liver enzymes ALT", "setting": "100 ppm in diet", "value": "194 ± 23", "unit": "units/L"},
      {"measurement": "Liver enzymes AST", "setting": "100 ppm in diet", "value": "169 ± 29", "unit": "units/L"},
      {"measurement": "Liver enzymes LDH", "setting": "100 ppm in diet", "value": "883 ± 68", "unit": "units/L"},
      {"measurement": "Major Organ Toxicity", "setting": "200 ppm in diet", "value": "Liver**; also recorded: Stomach"},
      {"measurement": "Ulceration (Grade) Colon", "setting": "200 ppm in diet", "value": "Grade: 2"},
      {"measurement": "Ulceration (Grade) Small Intestine", "setting": "200 ppm in diet", "value": "Grade: 4"},
      {"measurement": "Ulceration (Grade) Stomach", "setting": "200 ppm in diet", "value": "Grade: 5"}
    ]}
  ]
}
